From ChEMBL document CHEMBL1201862, “PubChem BioAssay data set” (2004)
Activity calls are given as the source filed them.

Experiments:
cells [1] = assay type: functional, cell-based
[2] = biological target: T1, Trace amine-associated receptor 1 (Homo sapiens, UniProt Q96RJ0); assay: Fluorescence-based cell-based high throughput dose response assay to identify agonists of the human trace amine associated receptor 1 (TAAR1).; assay type: functional
[3] = biological target: T1, Trace amine-associated receptor 1; assay: Counterscreen for agonists of the human trace amine associated receptor 1 (hTAAR1): Fluorescence-based cell-based high throughput dose response assay to identify hTAAR1 agonist that also desensitize TAAR1 receptor response.; assay type: functional
cells [4] = assay type: functional, cell-based; remark: listed apart in the source
[5] = growth inhibition of PfATP4-mutant resistant parasites – NITD609-resistant line, SYBR Green, dry powder, dose response (AID 1159571); assay type: functional, cell-based;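 note: parasites synchronized at ring stage by sorbitol before testing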
[6] = HEK293 Cytotoxicity Assay Measured in Cell-Based System Using Plate Reader - 7071-01_Inhibitor_Dose_CherryPick_Activity_Set2.; assay type: functional
[7] = growth inhibition of yeast DHODH-expressing 3D7 parasites – SYBR Green, dry powder samples, dose response (AID 1159570); assay type: functional, cell-based;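 note: parasite growth measured after 72 hours of compound exposure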
[8] = toxicity to human hepatoma HepG2 cells – cell-based, cherry-picked samples, cytotoxicity control, dose response (AID 1159577); assay type: functional
[9] = Dd2 malaria parasite growth inhibition potency – SYBR Green, dry powder samples, dose response (AID 1159566); assay type: functional, cell-based;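 note: potency for growth inhibition with lower SYBR green DNA signal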
[10] = toxicity to human HepG2 hepatoma cells – cell-based, plate reader, dry powder samples, cytotoxicity control, dose response (AID 1159569); assay type: functional;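 note: inhibitor potency with signal falling toward the positive control level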
HeLa = assay: viability loss in HeLa cells – cell-based, ATP luminescence, cherry-pick samples, cytotoxicity control, dose response (AID 687004); assay type: functional; details: Homo sapiens
[11] = P. falciparum Dd2 growth inhibitors, dose response, SYBR Green, cherry-picked samples (AID 1159567); assay type: functional, cell-based
HEK293 [12] = assay: viability loss in HEK293T cells – cell-based, ATP luminescence, cherry-pick samples, cytotoxicity control, dose response (AID 687005); assay type: functional; details: Homo sapiens;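 note: cells exposed to compound for 48 hours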
[13] = EF1alpha-driven Renilla reporter with control 3'UTR suppression – Clone20-Shn3RL cells, dual-Glo, cherry-pick, set 2, counter-screen for Shn3 3'UTR targeting project, dose response (AID 720724); assay type: functional, cell-based; details: Dual-Go Shn3RL
[14] = non-specific 3'UTR reporter inhibition in Clone20-Shn3RL – cell-based, Renilla luciferase, cherry-picked, counter-screen for Shn3 inhibitor project, dose response (AID 624133); assay type: functional
[15] = reduction of Shn3 3'UTR-driven luciferase in osteoblasts – cell-based, Clone20 osteoblasts, firefly luciferase, cherry-picked, dose response (AID 624132); assay type: functional;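 note: firefly luciferase luminescence from reporter carrying the Shn3 3'UTR in osteoblasts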
[16] = Shn3 3'UTR reporter signal decrease – cell-based, Clone20 osteoblasts, firefly luciferase, cherry-pick, set 2, Schnurri-3 inhibitor project, dose response (AID 720490); assay type: functional;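 note: actives lower the luminescence signal as inhibitors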
[17] = viability loss in LCL cells – cell-based, plate reader, dry powder, set 2, cytotoxicity control, dose response (AID 624367); assay type: functional
[18] = cytotoxicity in HEK293 background cells – cell-based, dry powder, set 2, counter-screen for EBV LMP1 inhibitor project, dose response (AID 624374); assay type: functional
cells [19] = details: HEK293
[20] = Cytotoxicity screening for potential Inhibitors of Bacterial Capsule Biogenesis (4).; assay type: functional
Major prion protein = Major prion protein (Homo sapiens, UniProt P04156); assay type: functional, cell-based
cells [21] = assay: cells
[22] = cytotoxicity in MITF-independent A375 cells – cell-based, CellTiter-Glo luminescence, dry powder, set 4, counter-screen for MITF inhibitor project, dose response (AID 624364); assay type: functional; details: A-375;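 note: A375 melanoma cells are MITF independent so this is a counter screen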
[23] = viability loss in MITF-independent A375 cells – cell-based, CellTiter-Glo luminescence, dry powder, set 2, counter-screen for MITF inhibitor project, dose response (AID 624489); assay type: functional; details: A-375;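 note: actives are compounds lowering A375 viability meaning general cytotoxicity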
[24] = biological target: Disintegrin and metalloproteinase domain-containing protein 17 (Homo sapiens, UniProt P78536); assay: exosite inhibitors of ADAM17, dose response, biochemical (AID 743260)
[25] = biological target: T2, Nuclear receptor subfamily 0 group B member 1 (Homo sapiens, UniProt P51843); assay: Luminescence-based cell-based high throughput dose response assay for inhibitors of the orphan nuclear receptor subfamily 0, group B, member 1 (DAX1; NR0B1). [Related pubchem assays (depositor defined):AID504766, AID504790]; assay type: functional
T2 sequence (P51843 whole entry): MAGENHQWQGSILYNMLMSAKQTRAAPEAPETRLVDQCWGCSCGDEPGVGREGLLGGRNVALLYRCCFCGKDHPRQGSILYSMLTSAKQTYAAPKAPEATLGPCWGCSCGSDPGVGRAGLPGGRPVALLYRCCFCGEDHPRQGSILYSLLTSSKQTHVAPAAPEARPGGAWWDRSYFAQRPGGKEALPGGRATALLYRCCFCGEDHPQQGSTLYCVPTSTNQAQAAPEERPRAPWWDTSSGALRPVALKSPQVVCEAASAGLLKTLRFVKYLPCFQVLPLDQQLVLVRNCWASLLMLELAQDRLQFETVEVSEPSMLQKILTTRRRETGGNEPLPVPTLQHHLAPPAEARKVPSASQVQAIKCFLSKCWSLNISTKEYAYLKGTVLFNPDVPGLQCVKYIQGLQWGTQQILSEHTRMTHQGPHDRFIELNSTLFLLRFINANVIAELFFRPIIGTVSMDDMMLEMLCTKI

[26] = inhibition of ADAM10 peptide cleavage – biochemical, FRET peptide substrate, recombinant human ADAM10, selectivity assay for ADAM17 exosite inhibitor project, dose response (AID 743259);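 note: ADAM10 enzyme cleaving a FRET peptide substrate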
HEK293 [27] = assay: cells; assay type: functional, cell-based; details: Homo sapiens
[28] = viability loss in HepG2 liver cells – cell-based, ATP luminescence, cherry-pick, set 6, cytotoxicity control, dose response (AID 1053125); assay type: functional
[29] = CTGF mRNA reduction in DLD1 cells – cell-based, DLD1 colon cancer, RT-qPCR, cherry-pick, dose response (AID 1053122); assay type: functional; details: Cancer cell lines
[30] = cytotoxicity toward MDA-MB-231 breast cancer cells – cell-based, CellTiter-Glo luminescence, cherry-pick, cytotoxicity control for RAD54 inhibitor project, dose response (AID 651692); assay type: functional
A549 = assay: viability loss in A549 cells – cell-based, plate reader, cherry-pick samples, cytotoxicity control, dose response (AID 687028); assay type: functional; details: Homo sapiens
[31] = viability of uninfected HEp-2 cells – cell-based, HTS, cytotoxicity control for RSV inhibitor project, dose response (AID 2410); assay type: functional; details: human respiratory syncytial virus
[32] = biological target: T3, DNA repair and recombination protein RAD54-like (Homo sapiens, UniProt Q92698); assay: RAD54 Holliday junction migration blockers – biochemical, fluorescence, cherry-picked samples, dose series, confirmation (AID 651657); assay type: functional
T3 sequence (Q92698 whole entry): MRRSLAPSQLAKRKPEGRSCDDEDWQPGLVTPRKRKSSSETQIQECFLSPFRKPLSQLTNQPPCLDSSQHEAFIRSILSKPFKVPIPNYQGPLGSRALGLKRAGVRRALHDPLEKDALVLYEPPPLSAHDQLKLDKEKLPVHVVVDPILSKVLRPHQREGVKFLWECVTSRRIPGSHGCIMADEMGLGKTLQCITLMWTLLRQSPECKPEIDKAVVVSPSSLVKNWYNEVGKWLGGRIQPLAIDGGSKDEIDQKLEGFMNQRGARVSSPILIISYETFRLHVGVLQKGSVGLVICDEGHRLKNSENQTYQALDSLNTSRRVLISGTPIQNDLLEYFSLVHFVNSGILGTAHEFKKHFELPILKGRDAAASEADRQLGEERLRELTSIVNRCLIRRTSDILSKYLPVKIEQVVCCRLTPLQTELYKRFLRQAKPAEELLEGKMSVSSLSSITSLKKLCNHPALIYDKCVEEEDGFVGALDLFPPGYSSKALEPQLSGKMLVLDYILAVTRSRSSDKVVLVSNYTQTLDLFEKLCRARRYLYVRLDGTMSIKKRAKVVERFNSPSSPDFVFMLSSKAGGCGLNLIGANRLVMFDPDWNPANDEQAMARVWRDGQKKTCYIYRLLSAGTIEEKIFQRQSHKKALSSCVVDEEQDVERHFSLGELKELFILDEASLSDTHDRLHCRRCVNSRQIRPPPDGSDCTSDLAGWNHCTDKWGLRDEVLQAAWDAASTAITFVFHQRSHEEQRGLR

Vero = assay: mammalian cell viability reduction – secondary assay, cytotoxicity control for West Nile virus antiviral project, dose response (AID 1650); assay type: functional; details: Chlorocebus sabaeus
cells [33] = assay: cells; remark: listed apart in the source
Fatty acid synthase = Fatty acid synthase (Homo sapiens, UniProt P49327); assay: inhibition of human FAS-TE enzyme activity – biochemical, endpoint fluorescence intensity, powder samples, SAR follow-up (AID 652164); assay type: functional
[34] = inhibitors of TRPM1-promoter reporter in SK-MEL-5 – cell-based, luciferase, dry powder, set 8, MITF inhibitor project, dose response (AID 624430); assay type: functional
[35] = MITF: Counter assay: A375 proliferation Measured in Cell-Based System Using Plate Reader - 2084-03_Inhibitor_Dose_DryPowder_Activity_Set8.; assay type: functional; details: A-375
[36] = MITF Orthogonal Assay: SK-MEL-5 CTG Assay Measured in Cell-Based System Using Plate Reader - 2084-02_Inhibitor_Dose_DryPowder_Activity_Set7.; assay type: functional
[37] = blockade of melanocortin 4 receptor signaling – cell-based, plate reader, cherry pick, counter-screen for LGR2 antagonist project, dose response (AID 743444); assay type: functional;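 note: transfected HEK 293 cells stimulated with alpha-MSH peptide; potency of inhibitors of the alpha-MSH evoked signal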
[38] = toxicity toward HepG2 liver cells – cell-based, plate reader, cherry-pick, antagonist series, cytotoxicity control, dose response (AID 743416); assay type: functional
[39] = A549 cell cytotoxicity, dose response, cytotoxicity control, plate reader, cherry-pick, antagonist series (AID 743412); assay type: functional, cell-based
[40] = inhibition of bursicon-driven LGR2 cAMP signaling – cell-based, HEK293, CRE-luciferase reporter, cherry pick, dose response (AID 743342); assay type: functional
[41] = viability loss in HEK293 cells – cell-based, plate reader, cherry-picked samples, cytotoxicity control, dose response (AID 743446); assay type: functional

## O=C(O)/C=C/C(=O)NCCC1=CCCCC1
Cells [1]
  IC50: > 29.9 µM (inactive)
[2]
  EC50: 1.39 µM (active)
[3]
  IC50: 7.65 µM (active)
Cells [4]
  EC50: > 29.9 µM (inactive)

## C[C@@H]1CN([C@@H](C)CO)C(=O)c2c(c3ccccc3n2C)-c2ccccc2CO[C@@H]1CN(C)S(=O)(=O)c1ccc(Cl)cc1
[5]
  AC50: 3.4 µM (active)
[6]
  AC50: 25.3 µM (active)
[7]
  AC50: 3.95 µM (active)
[8]
  AC50: > 39 µM (inactive)
[9]
  AC50: 1.97 µM (active)
[10]
  AC50: 39.2 µM (active)
HeLa
  AC50: 49.1 µM (active)
[11]
  AC50: 2.33 µM (active)
HEK293 [12]
  AC50: 25.3 µM (active)

## COC(=O)C1=C(c2ccc(OCc3ccccc3)cc2)C[C@@H]2CC[C@H]1N2C(=O)NCCCCc1ccccc1
[13]
  AC50: 35.9 µM (active)
[14]
  AC50: 25.6 µM (active)
[15]
  AC50: 2.8 µM (active)
[16]
  AC50: 10.3 µM (active)

## Cc1noc(C)c1S(=O)(=O)Nc1ccc2c(c1)C(=O)N([C@@H](C)CO)C[C@@H](C)[C@@H](CN(C)Cc1ccc(C(F)(F)F)cc1)OCCCC[C@H](C)O2
[17]
  AbsAC35: 52.95 µM
[18]
  AbsAC35: 54.05 µM

## Cc1ccc2c(c1)-c1c(cnn1CC(=O)Nc1ccccc1N1CCN(C)CC1)CO2
Cells [19]
  AC50: 47.1 µM (active)

## Cc1nc2ccc(C(=O)Nc3ccncc3)cc2s1
[20]
  CC50: > 300 µM (active)

## O=C(O)c1ccccc1C(=O)c1cccc2c(Br)cccc12
Major prion protein
  IC50: 1.57 µM (active)
Cells [21]
  IC50: > 138 µM (inactive)

## CN1CCN(C2=C(NC(=O)c3ccccc3)C(=O)c3ccccc3C2=O)CC1
[22]
  AC50: 17 µM (active)
[23]
  AC50: 12.9 µM (active)

## COCCOc1ccc(C(F)(F)F)cc1NC(=O)CN1C(=O)NC(C)(c2ccc3c(c2)OCO3)C1=O (stereo unspecified)
[24]
  IC50: > 69.5 µM (inactive)
[25]
  IC50: > 67.5 µM (inactive)
[26]
  IC50: 27.7 µM (inactive)
HEK293 [27]
  IC50: > 67.5 µM (inactive)

## Cc1cccn2c(=O)c3cc(C#N)/c(=N\C(=O)c4cccs4)n(CC(C)C)c3nc12
[28]
  AC50: > 52 µM (inactive)

## CCc1nc(N2[C@H](CO)[C@@H](c3ccccc3-c3ccc(F)cc3)[C@@H]2C#N)sc1C
[29]
  AC50: > 26 µM (inactive)

## CN1CCCC1CCNc1ccc2sc3ccccc3c(=O)c2c1 (stereo unspecified)
[30]
  AC50: 48.8 µM (active)
A549
  AC50: 20.2 µM (active)
[31]
  CC50: 11.5 µM (active)
[32]
  AC50: 13.6 µM (active)
Vero
  CC50: 21.1 µM (active)

## CC(C)OCCCn1c(=N)c(C(N)=S)cc2c(=O)n3ccccc3nc21
Cells [33]
  AC50: 0.61 µM (active)

## O=C(Nc1nc(-c2ccc(S(=O)(=O)N3CCOCC3)cc2)cs1)C1CCCC1
Fatty acid synthase
  IC50: > 80 µM (inactive)

## O=C1C(Nc2ccc(F)cc2)=C(N2CCCC2)C(=O)c2ccccc21
[34]
  AC50: 0.583 µM (active)
[35]
  AC50: 11.9 µM (active)
[36]
  AC50: 0.625 µM (active)

## C[C@H]1CCCCO[C@@H](CN(C)S(=O)(=O)c2ccc(Cl)cc2)[C@@H](C)CN([C@@H](C)CO)C(=O)c2cc(NC(=O)NC3CCCCC3)ccc2O1
[37]
  AC50: 30.1 µM (active)
[38]
  AC50: > 52 µM (inactive)
[39]
  AC50: 20.1 µM (active)
[40]
  AC50: 32.4 µM (active)
[41]
  AC50: > 52 µM (inactive)
